Reference: publication PMC8621172, “Manipulating Estrogenic/Anti-Estrogenic Activity of Triphenylethylenes towards Development of Novel Anti-Neoplastic SERMs” (International Journal of Molecular Sciences, 2021)

What was measured:
MCF-7 cells = experiment: NCI growth inhibition on MCF-7 (single dose and five-dose, SRB); assay type: cell-based, human; conditions: for inhibition at 10 µM / GI50: Homo sapiens, MCF7; for GI50: MCF-7, five-dose assay, 48 h
Method: Compounds were submitted to the Developmental Therapeutics Program (DTP) of the National Cancer Institute (NCI). The program uses a panel of 60 human tumor cell lines representing nine tissue types, including leukemia, non-small cell lung cancer (NSCLC), melanoma, colon cancer, ovarian cancer, CNS cancer, renal cancer, prostate cancer, and breast cancer, to screen for potential new anti-cancer agents. […] Primary screening of synthesized compounds was performed by testing a single high dose of 10 µM in the full NCI-60 panel. The percent growth of treated cells relative to the no-drug control and relative to the time zero number of cells was measured, and a mean graph was provided. The percentage inhibition was then calculated by subtracting the values obtained from 100.
All compounds were subjected to the NCI in vitro disease-oriented human cells screening panel assay. The human tumor cell lines of the cancer-screening panel are grown in RPMI 1640 medium containing 5% fetal bovine serum and 2 mM L-glutamine. For a typical screening experiment, cells are inoculated into 96-well microtiter plates in 100 μL at plating densities ranging from 5000 to 40,000 cells/well depending on the doubling time of individual cell lines. After cell inoculation, the microtiter plates are incubated at 37 °C, 5% CO2, 95% air, and 100% relative humidity for 24 h prior to the addition of experimental drugs. After 24 h, two plates of each cell line are fixed in situ with TCA to represent a measurement of the cell population for each cell line at the time of drug addition. Experimental drugs are solubilized in dimethyl sulfoxide at 400-fold the desired final maximum test concentration and stored frozen prior to use. At the time of drug addition, an aliquot of frozen concentrate is thawed and diluted to twice the desired final maximum test concentration with complete medium containing 50 μg/mL gentamicin. Additional four, 10-fold, or ½ log serial dilutions are made to provide a total of five drug concentrations plus control. Aliquots of 100 μL of these different drug dilutions are added to the appropriate microtiter wells already containing 100 μL of medium, resulting in the required final drug concentrations. Following drug addition, the plates are incubated for an additional 48 h at 37 °C, 5% CO2, 95% air, and 100% relative humidity. For adherent cells, the assay is terminated by the addition of cold TCA. Cells are fixed in situ by the gentle addition of 50 μL of cold 50% (w/v) TCA (final concentration, 10% TCA) and incubated for 60 min at 4 °C. The supernatant is discarded, and the plates are washed five times with tap water and air-dried. Sulforhodamine B (SRB) solution (100 μL) at 0.4% (w/v) in 1% acetic acid is added to each well, and plates are incubated for 10 min at room temperature. After staining, unbound dye is removed by washing five times with 1% acetic acid, and the plates are air-dried. Bound stain is subsequently solubilized with a 10 mM trizma base, and the absorbance is read on an automated plate reader at a wavelength of 515 nm. For suspension cells, the methodology is the same except that the assay is terminated by fixing settled cells at the bottom of the wells by gently adding 50 μL of 80% TCA (final concentration, 16% TCA). Compounds are screened at a dose of 10 µM, hits showing mean growth inhibition over 60 cell lines >50% are escalated for 5-dose screening assay. To construct a dose-response curve, about 60 cell lines of nine tumor subpanels were incubated with five concentrations (0.01–100 μM) for each compound. Three response parameters (GI50, TGI, and LC50) were calculated for each cell line.

[1] = tested on: Ishikawa endometrial adenocarcinoma cell line; experiment: Alkaline phosphatase (AlkP) activity in Ishikawa cells; assay type: cell-based, human; conditions: for Relative alkaline phosphatase activity: 72 h, DMSO set to 1
Method: Alkaline phosphatase (AlkP) activity in these human endometrial cancer cells is markedly stimulated by estrogens.
Because of the potential SERM character of the compounds tested, their estrogenic effects were studied in an endometrial-derived cell culture model, the human endometrial adenocarcinoma cell line Ishikawa. […] All compounds were screened at two concentrations, 0.1 and 1 µM. Its agonistic effect was compared to the vehicle control DMSO (data shown in Supplementary Materials). […] The four compounds were studied in a concentration range of 1 nM to 10 µM.
Estrogens stimulate the activity of alkaline phosphatase (AlkP) in Ishikawa cells (human endometrial adenocarcinoma cells; kindly provided by Prof. Masato Nishida, National Hospital Organization, Kasumigaura Medical Center, Japan). This enzyme activity is estimated by using the chromogen substrate (4-nitrophenylphosphate). […] The procedure was modified by Littlefield et al., 1990 [42].
After 72 h incubation, cells were harvested, washed twice with PBS, and incubated at −80 °C for about 30 min to lyse the cells. After thawing, the lysates were resuspended in reaction buffer (274 mM mannitol, 100 mM CAPS, 4 mM MgCl2, pH 10.4) containing 4 mM p-nitrophenylphosphate (NPP). After incubation for 1 h in the dark, AlkP activity was assayed by using the hydrolysis of p-nitrophenylphosphate to p-nitrophenol at pH 10.4 and the spectrometric determination of the kinetic of the product formation at 405 nm. All compounds were tested in technical triplicates and biological triplicates. Statistical analysis was performed by analysis of variance (ANOVA) and Tukey’s post-hoc test with the significance level of p < 0.05.

In the case of COc1ccc(C(C)=C(c2ccc(Cl)cc2)c2ccc(OCCN3CCCC3)cc2)cc1F [Compound 16, E/Z-1-(2-{4-[1-(4-Chlorophenyl)-2-(3-fluoro-4-methoxyphenyl)-propenyl]-phenoxy}-ethyl)-pyrrolidine], the inhibition at 10 µM (MCF-7 cells; 10 µM) is reported as 90%, the GI50 (MCF-7 cells) is reported as 2.41 µM and the “Relative alkaline phosphatase activity” value ([1]; 1 µM) is reported as 0.98 ± 0.53.
In the case of COc1ccc(C(C)=C(c2ccc(Cl)cc2)c2ccc(OCCN3CCCCC3)cc2)cc1F [Compound 17, E/Z-1-(2-{4-[1-(4-Chlorophenyl)-2-(3-fluoro-4-methoxyphenyl)-propenyl]-phenoxy}-ethyl)-piperidine], the inhibition at 10 µM (MCF-7 cells; 10 µM) is reported as 85%, the GI50 (MCF-7 cells) is reported as 3.34 µM and the “Relative alkaline phosphatase activity” value ([1]; 1 µM) is reported as 1.31 ± 0.41.
In the case of COc1ccc(C(C)=C(c2ccc(Cl)cc2)c2ccc(OCCN3CCOCC3)cc2)cc1F [Compound 18, E/Z-4-(2-{4-[1-(4-Chlorophenyl)-2-(3-fluoro-4-methoxyphenyl)-propenyl]-phenoxy}-ethyl)-morpholine], the “Growth Inhibition on MCF-7 (%)” value (MCF-7 cells; 10 µM) is reported as “No inhibition” and the “Relative alkaline phosphatase activity” value ([1]; 1 µM) is reported as 1.01 ± 0.24.
COc1ccc(C(C)=C(c2ccc(Cl)cc2)c2ccc(OCCN3CCCCCC3)cc2)cc1F [Compound 19, E/Z-1-(2-{4-[1-(4-Chlorophenyl)-2-(3-fluoro-4-methoxyphenyl)-propenyl]-phenoxy}-ethyl)-azepane] was tested, and the inhibition at 10 µM (MCF-7 cells; 10 µM) was 75.9%, the GI50 (MCF-7 cells) was 3.59 µM and the “Relative alkaline phosphatase activity” value ([1]; 1 nM) was 1.02 ± 0.13. The “Relative alkaline phosphatase activity” value ([1]; 10 nM) was 1.06 ± 0.11, the “Relative alkaline phosphatase activity” value ([1]; 100 nM) was 1.75 ± 0.08 and the “Relative alkaline phosphatase activity” value ([1]; 10 µM) was 0.04 ± 0.04. For the same compound, the “effect on AlkP activity (in words)” value ([1]; 72 h treatment, 5-dose assay 1 nM to 10 µM) was “increase the AlkP activity in a dose-pendent manner”.
In the case of COc1ccc(C(C)=C(c2ccc(Cl)cc2)c2ccc(OCCN(C)C)cc2)cc1F [Compound 20, E/Z-(2-{4-[1-(4-Chlorophenyl)-2-(3-fluoro-4-methoxyphenyl)-propenyl]-phenoxy}-ethyl)-dimethyl-amine], the inhibition at 10 µM (MCF-7 cells; 10 µM) is reported as 68.2% and the “Relative alkaline phosphatase activity” value ([1]; 1 µM) is reported as 1.12 ± 0.46.
In the case of CCN(CC)CCOc1ccc(C(=C(C)c2ccc(OC)c(F)c2)c2ccc(Cl)cc2)cc1 [Compound 21, E/Z-(2-{4-[1-(4-Chlorophenyl)-2-(3-fluoro-4-methoxyphenyl)-propenyl]-phenoxy}-ethyl)-diethyl-amine], the inhibition at 10 µM (MCF-7 cells; 10 µM) is reported as 29.7% and the “Relative alkaline phosphatase activity” value ([1]; 1 µM) is reported as 0.90 ± 0.13.
